{"source": "paper PMC5218480", "about": "(PLoS ONE, 2017)", "tested_on": "MV-4-11 cells", "test": "Gene expression microarray analysis (Affymetrix PrimeView) and GSEA", "format": "cell-based, human", "design": "RFU PODN (11730768_x_at) / Fold change /veh PODN (11730768_x_at) / RFU LINC00158 (11744669_a_at) / Fold change /veh LINC00158 (11744669_a_at) / RFU DUSP10 (11751237_a_at) / Fold change /veh DUSP10 (11751237_a_at) / RFU ID3 (11757404_x_at) / Fold change /veh ID3 (11757404_x_at) / RFU PLEKHG5 (11737974_s_at) / Fold change /veh PLEKHG5 (11737974_s_at) / RFU LRRC4B (11730491_at) / Fold change /veh LRRC4B (11730491_at) / RFU GIMAP4 (11747438_a_at) / Fold change /veh GIMAP4 (11747438_a_at) / RFU KRT8 (11758183_x_at) / Fold change /veh KRT8 (11758183_x_at) / RFU CNN1 (11734310_a_at) / Fold change /veh CNN1 (11734310_a_at) / RFU VPS37D (11726825_at) / Fold change /veh VPS37D (11726825_at) / RFU C10orf10 (11716522_x_at) / Fold change /veh C10orf10 (11716522_x_at) / RFU KIR2DL2 /// KIR2DL4 /// KIR2DL5A /// KIR2DL5B /// KIR2DS1 /// KIR2DS2 /// KIR2DS3 /// KIR2DS4 /// KIR3DL3 /// KIR3DL3 /// KIR3DS1 (11738374_at) / Fold change /veh KIR2DL2 /// KIR2DL4 /// KIR2DL5A /// KIR2DL5B /// KIR2DS1 /// KIR2DS2 /// KIR2DS3 /// KIR2DS4 /// KIR3DL3 /// KIR3DL3 /// KIR3DS1 (11738374_at) / RFU C1QL1 (11718748_at) / Fold change /veh C1QL1 (11718748_at) / RFU TMPRSS4 (11747572_a_at) / Fold change /veh TMPRSS4 (11747572_a_at) / RFU HAMP (11756126_x_at) / Fold change /veh HAMP (11756126_x_at) / RFU RNFT2 (11725882_a_at) / Fold change /veh RNFT2 (11725882_a_at) / RFU NR4A2 (11747474_a_at) / Fold change /veh NR4A2 (11747474_a_at) / RFU ABCC12 (11746883_a_at) / Fold change /veh ABCC12 (11746883_a_at) / RFU TMEM136 (11760407_x_at) / Fold change /veh TMEM136 (11760407_x_at) / RFU CLDN22 /// WWC2 (11732394_at) / Fold change /veh CLDN22 /// WWC2 (11732394_at) / RFU HLA-DPB1 (11760878_x_at) / Fold change /veh HLA-DPB1 (11760878_x_at) / RFU SPINT1 (11716480_a_at) / Fold change /veh SPINT1 (11716480_a_at) / RFU GAP43 (11754022_s_at) / Fold change /veh GAP43 (11754022_s_at) / RFU A4GNT (11735810_at) / Fold change /veh A4GNT (11735810_at) / RFU PRB3 (11715151_x_at) / Fold change /veh PRB3 (11715151_x_at) / RFU TUBB4B (11761932_at) / Fold change /veh TUBB4B (11761932_at) / RFU CAPN14 (11732068_a_at) / Fold change /veh CAPN14 (11732068_a_at) / RFU TMCC2 (11721928_a_at) / Fold change /veh TMCC2 (11721928_a_at) / RFU IRGQ (11745062_a_at) / Fold change /veh IRGQ (11745062_a_at) / RFU FAM174B (11720279_a_at) / Fold change /veh FAM174B (11720279_a_at) / RFU TMPRSS4 (11748680_a_at) / Fold change /veh TMPRSS4 (11748680_a_at) / RFU FAM212B (11763350_a_at) / Fold change /veh FAM212B (11763350_a_at) / RFU PLEKHG5 (11743358_a_at) / Fold change /veh PLEKHG5 (11743358_a_at) / RFU ZSCAN30 (11745921_a_at) / Fold change /veh ZSCAN30 (11745921_a_at) / RFU CMKLR1 (11741424_a_at) / Fold change /veh CMKLR1 (11741424_a_at) / RFU LOC101060620 /// MAPK8IP1 (11723275_at) / Fold change /veh LOC101060620 /// MAPK8IP1 (11723275_at) / RFU SPTSSB (11747773_x_at) / Fold change /veh SPTSSB (11747773_x_at) / RFU PRSS12 (11739890_at) / Fold change /veh PRSS12 (11739890_at) / RFU BIN1 (11741810_x_at) / Fold change /veh BIN1 (11741810_x_at) / RFU WNT11 (11732464_a_at) / Fold change /veh WNT11 (11732464_a_at) / RFU C10orf10 (11716521_a_at) / Fold change /veh C10orf10 (11716521_a_at) / RFU C5orf56 (11738089_at) / Fold change /veh C5orf56 (11738089_at) / RFU CYB561 (11721691_x_at) / Fold change /veh CYB561 (11721691_x_at) / RFU ANKRD19P (11752326_a_at) / Fold change /veh ANKRD19P (11752326_a_at) / RFU OR2T12 /// OR2T33 /// OR2T8 (11738714_s_at) / Fold change /veh OR2T12 /// OR2T33 /// OR2T8 (11738714_s_at) / RFU VCAN (11748164_a_at) / Fold change /veh VCAN (11748164_a_at) / RFU JSRP1 (11732532_at) / Fold change /veh JSRP1 (11732532_at) / RFU KRTAP10-11 (11738290_x_at) / Fold change /veh KRTAP10-11 (11738290_x_at) / RFU MYO3A (11730013_a_at) / Fold change /veh MYO3A (11730013_a_at) / RFU EBF3 (11725865_a_at) / Fold change /veh EBF3 (11725865_a_at) / RFU CAMK2N1 (11719241_x_at) / Fold change /veh CAMK2N1 (11719241_x_at) / RFU C5orf56 (11738088_a_at) / Fold change /veh C5orf56 (11738088_a_at) / RFU OLFML3 (11715873_a_at) / Fold change /veh OLFML3 (11715873_a_at) / RFU LOC100653217 /// NTM (11731650_a_at) / Fold change /veh LOC100653217 /// NTM (11731650_a_at) / RFU MAPK11 (11762145_a_at) / Fold change /veh MAPK11 (11762145_a_at) / RFU FIZ1 (11724087_x_at) / Fold change /veh FIZ1 (11724087_x_at) / RFU OASL (11726364_x_at) / Fold change /veh OASL (11726364_x_at) / RFU SOX15 (11748057_x_at) / Fold change /veh SOX15 (11748057_x_at) / RFU CD79A (11719716_a_at) / Fold change /veh CD79A (11719716_a_at) / RFU HIST1H1D (11736915_at) / Fold change /veh HIST1H1D (11736915_at) / RFU CASKIN2 (11723855_a_at) / Fold change /veh CASKIN2 (11723855_a_at) / RFU LOC730098 (11760151_x_at) / Fold change /veh LOC730098 (11760151_x_at) / RFU OR4N2 (11742367_at) / Fold change /veh OR4N2 (11742367_at) / RFU PRRT2 (11749266_a_at) / Fold change /veh PRRT2 (11749266_a_at) / RFU SNX32 (11753110_a_at) / Fold change /veh SNX32 (11753110_a_at) / RFU CDHR5 (11726645_a_at) / Fold change /veh CDHR5 (11726645_a_at) / RFU RCAN1 (11760418_a_at) / Fold change /veh RCAN1 (11760418_a_at) / RFU FAM167A (11723789_a_at) / Fold change /veh FAM167A (11723789_a_at) / RFU FAM26E (11764081_at) / Fold change /veh FAM26E (11764081_at) / RFU ISYNA1 (11749810_s_at) / Fold change /veh ISYNA1 (11749810_s_at) / RFU ACY1 (11761880_at) / Fold change /veh ACY1 (11761880_at) / RFU 11764098_at / Fold change /veh 11764098_at / RFU SAMD14 (11745864_x_at) / Fold change /veh SAMD14 (11745864_x_at) / RFU NPB (11741838_a_at) / Fold change /veh NPB (11741838_a_at) / RFU TMPRSS6 (11731388_a_at) / Fold change /veh TMPRSS6 (11731388_a_at) / RFU KRTAP10-2 (11738614_at) / Fold change /veh KRTAP10-2 (11738614_at) / RFU ARHGAP8 /// PRR5-ARHGAP8 (11727945_x_at) / Fold change /veh ARHGAP8 /// PRR5-ARHGAP8 (11727945_x_at) / RFU KRTAP5-7 /// NADSYN1 (11734609_at) / Fold change /veh KRTAP5-7 /// NADSYN1 (11734609_at) / RFU RASL12 (11751679_a_at) / Fold change /veh RASL12 (11751679_a_at) / RFU CDKN2B (11736163_a_at) / Fold change /veh CDKN2B (11736163_a_at) / RFU PRF1 (11729649_at) / Fold change /veh PRF1 (11729649_at) / RFU, ZNF638 /// ZNF638-IT1 / Fold change vs veh, ZNF638 /// ZNF638-IT1 / RFU, PANK3 / Fold change vs veh, PANK3 / RFU, SH3YL1 / Fold change vs veh, SH3YL1 / RFU, ZEB2 / Fold change vs veh, ZEB2 / RFU, NRIP1 / Fold change vs veh, NRIP1 / RFU, PTTG1IP / Fold change vs veh, PTTG1IP / RFU, CAPN2 / Fold change vs veh, CAPN2 / RFU, MED14 / Fold change vs veh, MED14 / RFU, SNORA58 / Fold change vs veh, SNORA58 / RFU, C1orf63 / Fold change vs veh, C1orf63 / RFU, LRRFIP1 / Fold change vs veh, LRRFIP1 / RFU, NDUFAF7 / Fold change vs veh, NDUFAF7 / RFU, SLC12A2 / Fold change vs veh, SLC12A2 / RFU, IBTK / Fold change vs veh, IBTK / RFU, ESF1 / Fold change vs veh, ESF1 / Fold change vs veh, TMEM50B / RFU, TAOK1 / Fold change vs veh, TAOK1 / RFU, ACBD3 / Fold change vs veh, ACBD3 / RFU, TMA16 / Fold change vs veh, TMA16 / RFU, RWDD3 / Fold change vs veh, RWDD3 / RFU, BCAT1 / Fold change vs veh, BCAT1 / RFU, EDEM3 / Fold change vs veh, EDEM3 / RFU, TMEM33 / Fold change vs veh, TMEM33 / RFU, WDR75 / Fold change vs veh, WDR75 / RFU, AHCTF1 / Fold change vs veh, AHCTF1 / RFU, TFRC / Fold change vs veh, TFRC / RFU, ZDHHC17 / Fold change vs veh, ZDHHC17 / RFU, NOM1 / Fold change vs veh, NOM1 / RFU, ARL8B / Fold change vs veh, ARL8B / RFU, ZBTB11 / Fold change vs veh, ZBTB11 / RFU, TAMM41 / Fold change vs veh, TAMM41 / RFU, KIAA1704 /// LOC100996395 / Fold change vs veh, KIAA1704 /// LOC100996395 / RFU, ING1 / Fold change vs veh, ING1 / RFU, TRMT61B / Fold change vs veh, TRMT61B / RFU, FUBP3 / Fold change vs veh, FUBP3 / RFU, TP53 / Fold change vs veh, TP53 / RFU, TNKS2 / Fold change vs veh, TNKS2 / RFU, ZFP14 / Fold change vs veh, ZFP14 / RFU, ACTR2 / Fold change vs veh, ACTR2 / RFU, PPP3R1 / Fold change vs veh, PPP3R1 / RFU, PIK3R1 / Fold change vs veh, PIK3R1 / RFU, HNRNPA1 / Fold change vs veh, HNRNPA1 / RFU, RNF170 / Fold change vs veh, RNF170 / RFU, ZNF28 / Fold change vs veh, ZNF28 / RFU, RNGTT / Fold change vs veh, RNGTT / RFU, OGT / Fold change vs veh, OGT / RFU, BRD1 / Fold change vs veh, BRD1 / RFU, MARS / Fold change vs veh, MARS / RFU, ZNF655 / Fold change vs veh, ZNF655 / RFU, FAHD1 / Fold change vs veh, FAHD1 / RFU, BDP1 / Fold change vs veh, BDP1 / RFU, LRRCC1 / Fold change vs veh, LRRCC1 / RFU, ARID1A / Fold change vs veh, ARID1A / RFU, ZNF146 / Fold change vs veh, ZNF146 / RFU, ZNF330 / Fold change vs veh, ZNF330 / RFU, GPN3 / Fold change vs veh, GPN3 / RFU, C9orf123 / Fold change vs veh, C9orf123 / RFU, N4BP2L2 / Fold change vs veh, N4BP2L2 / RFU, ARFIP1 / Fold change vs veh, ARFIP1 / RFU, FAM179B / Fold change vs veh, FAM179B / RFU, BCL10 / Fold change vs veh, BCL10 / RFU, UHRF1BP1L / Fold change vs veh, UHRF1BP1L / RFU, BET1 / Fold change vs veh, BET1 / RFU, CNOT2 / Fold change vs veh, CNOT2 / RFU, ZNF268 / Fold change vs veh, ZNF268 / Fold change vs veh, ZNF507 / RFU, DGCR2 / Fold change vs veh, DGCR2 / RFU, WDSUB1 / Fold change vs veh, WDSUB1 / Fold change vs veh, HSP90B1 /// MIR3652 / RFU, ADSS / Fold change vs veh, ADSS / RFU, GK / Fold change vs veh, GK / RFU, ZNF148 / Fold change vs veh, ZNF148 / RFU, TAF9 / Fold change vs veh, TAF9 / RFU, SLC1A5 / Fold change vs veh, SLC1A5 / RFU, SLMO2 / Fold change vs veh, SLMO2 / RFU, ABCC4 / Fold change vs veh, ABCC4 / RFU, LOC101060439 /// RAP1B / Fold change vs veh, LOC101060439 /// RAP1B / RFU, RFX7 / Fold change vs veh, RFX7 / RFU, GTPBP10 / Fold change vs veh, GTPBP10 / RFU, CNEP1R1 / Fold change vs veh, CNEP1R1 / RFU, BIVM-ERCC5 /// ERCC5 / Fold change vs veh, BIVM-ERCC5 /// ERCC5 / RFU, ILF3 / Fold change vs veh, ILF3 / RFU 11762660_at / Fold change /veh 11762660_at / RFU VCAN (11757783_s_at) / Fold change /veh VCAN (11757783_s_at) / RFU DDX43 (11728927_at) / Fold change /veh DDX43 (11728927_at) / RFU KRT8 (11758188_x_at) / Fold change /veh KRT8 (11758188_x_at) / RFU NKD1 (11759106_at) / Fold change /veh NKD1 (11759106_at) / RFU SRD5A1 (11742802_a_at) / Fold change /veh SRD5A1 (11742802_a_at) / RFU TPSAB1 /// TPSB2 (11721975_s_at) / Fold change /veh TPSAB1 /// TPSB2 (11721975_s_at) / RFU GSTM3 (11746129_a_at) / Fold change /veh GSTM3 (11746129_a_at) / RFU IL23R (11737362_x_at) / Fold change /veh IL23R (11737362_x_at) / RFU TMEM51 (11727254_a_at) / Fold change /veh TMEM51 (11727254_a_at) / RFU PIWIL2 (11732686_x_at) / Fold change /veh PIWIL2 (11732686_x_at) / RFU ORM1 (11744905_x_at) / Fold change /veh ORM1 (11744905_x_at) / RFU CCDC152 (11743942_at) / Fold change /veh CCDC152 (11743942_at) / RFU ECM1 (11717891_a_at) / Fold change /veh ECM1 (11717891_a_at) / RFU IL23R (11748794_a_at) / Fold change /veh IL23R (11748794_a_at) / RFU TNFAIP8L3 (11732012_x_at) / Fold change /veh TNFAIP8L3 (11732012_x_at) / RFU MBOAT4 (11741988_at) / Fold change /veh MBOAT4 (11741988_at) / RFU 11764193_at / Fold change /veh 11764193_at / RFU TMEM53 (11763286_at) / Fold change /veh TMEM53 (11763286_at) / RFU MAGEB2 (11727129_at) / Fold change /veh MAGEB2 (11727129_at) / RFU TMEM200A (11744735_a_at) / Fold change /veh TMEM200A (11744735_a_at) / RFU CCDC152 (11751479_a_at) / Fold change /veh CCDC152 (11751479_a_at) / RFU FAM211A (11726209_a_at) / Fold change /veh FAM211A (11726209_a_at) / RFU RGS16 (11746705_a_at) / Fold change /veh RGS16 (11746705_a_at) / RFU VCAN (11755009_s_at) / Fold change /veh VCAN (11755009_s_at) / RFU RHOB (11743442_s_at) / Fold change /veh RHOB (11743442_s_at) / RFU RGS16 (11720943_a_at) / Fold change /veh RGS16 (11720943_a_at) / RFU RGS16 (11720944_at) / Fold change /veh RGS16 (11720944_at) / RFU, VPS4B / Fold change vs veh, VPS4B / RFU, CREB1 / Fold change vs veh, CREB1 / RFU, DNAJC13 / Fold change vs veh, DNAJC13 / RFU, GNAQ / Fold change vs veh, GNAQ / RFU, CDK5R1 / Fold change vs veh, CDK5R1 / RFU, ZRANB3 / Fold change vs veh, ZRANB3 / RFU, CUL4A / Fold change vs veh, CUL4A / RFU, CCNY / Fold change vs veh, CCNY / RFU, UFL1 / Fold change vs veh, UFL1 / RFU, COG3 / Fold change vs veh, COG3 / RFU, DIAPH2 / Fold change vs veh, DIAPH2 / RFU, SKA2 / Fold change vs veh, SKA2 / RFU, AFF3 / Fold change vs veh, AFF3 / RFU, LMF1 / Fold change vs veh, LMF1 / RFU, IPO11 / Fold change vs veh, IPO11 / RFU, DFFB / Fold change vs veh, DFFB / RFU, FOXP1 / Fold change vs veh, FOXP1 / RFU, CARD8 / Fold change vs veh, CARD8 / RFU, STRN3 / Fold change vs veh, STRN3 / RFU, ADK / Fold change vs veh, ADK / RFU, RASSF2 / Fold change vs veh, RASSF2 / RFU, WIPF1 / Fold change vs veh, WIPF1 / RFU, LARP1B / Fold change vs veh, LARP1B / RFU, RASA1 / Fold change vs veh, RASA1 / RFU, RB1 / Fold change vs veh, RB1 / RFU, PPFIA1 / Fold change vs veh, PPFIA1 / RFU, MAT2A / Fold change vs veh, MAT2A / RFU, CCT5 / Fold change vs veh, CCT5 / RFU, WDR92 / Fold change vs veh, WDR92 / RFU, CUX1 / Fold change vs veh, CUX1 / RFU, TTC7A / Fold change vs veh, TTC7A / RFU, TMEM135 / Fold change vs veh, TMEM135 / RFU, DEPTOR / Fold change vs veh, DEPTOR / RFU, CPM / Fold change vs veh, CPM / RFU, DNAJB6 / Fold change vs veh, DNAJB6 / RFU, CACNA2D3 / Fold change vs veh, CACNA2D3 / RFU, DTX4 / Fold change vs veh, DTX4 / RFU, TFCP2 / Fold change vs veh, TFCP2 / RFU, GMCL1 /// GMCL1P1 / Fold change vs veh, GMCL1 /// GMCL1P1 / RFU, AEBP2 / Fold change vs veh, AEBP2 / RFU, SNHG1 /// SNORD22 /// SNORD25 /// SNORD26 /// SNORD27 /// SNORD28 /// SNORD29 /// SNORD31 / Fold change vs veh, SNHG1 /// SNORD22 /// SNORD25 /// SNORD26 /// SNORD27 /// SNORD28 /// SNORD29 /// SNORD31 / Fold change (Aza/veh), C12orf56 (ProbeSet 11735607_a_at) / Fold change (ACY-1035/veh), C12orf56 (ProbeSet 11735607_a_at) / Fold change (Aza/veh), FGFR1OP (ProbeSet 11751329_s_at) / Fold change (ACY-1035/veh), FGFR1OP (ProbeSet 11751329_s_at) / Fold change (Aza/veh), VPS36 (ProbeSet 11739960_a_at) / Fold change (ACY-1035/veh), VPS36 (ProbeSet 11739960_a_at) / RFU SYPL1 (11715823_x_at) / Fold change /veh SYPL1 (11715823_x_at) / RFU IGFBP7 (11715501_s_at) / Fold change /veh IGFBP7 (11715501_s_at) / RFU REEP3 (11722064_at) / Fold change /veh REEP3 (11722064_at) / RFU IGLL1 (11728026_x_at) / Fold change /veh IGLL1 (11728026_x_at): dose or concentration left out as unconfirmed", "conditions": "MV-4-11 cells, 48 hours"}
{"compound": "Nc1ccc(-c2cccs2)cc1NC(=O)c1ccc2c(c1)cc(C1CC1)n2CCN1CCOCC1", "note": "[ACY-1035]", "values": [{"measurement": "RFU RGS16 (11720943_a_at)", "result": 70.47, "unit": "RFU"}]}
